Data taken from US20260174777A1, “METHODS OF TREATMENT” (Arena Pharmaceuticals, Inc., priority 2022, published 2026).
Entries after “also recorded” stand apart in the source; their conditions may differ. Like-named read-outs stand apart in the source and are kept apart here.

Experiments:
[1] = for CL/F Mean / Cav Mean / Ctrough Mean: healthy subjects
[2] = single ascending dose study with healthy subjects: pharmacokinetics
clinical [3] = conditions: human; for CL renal: plasma and urine; for half-life / Cmax / Tmax / AUC(0-inf) / Vd/F: plasma
prolactin [4] = test: single ascending dose study with healthy subjects: prolactin pharmacodynamics; type: in vivo, human; conditions: single doses
clinical [5] = conditions: human, plasma, oral
[6] = multiple ascending dose study with healthy subjects: safety and tolerability; type: in vivo, human
[7] = single ascending dose study with healthy subjects: safety and tolerability; type: in vivo, human; conditions: single doses 1 to 24 mg
prolactin [8] = test: multiple ascending dose study with healthy subjects: prolactin pharmacodynamics; type: in vivo, human; conditions: multiple doses TID
Protocol: Prolactin serum concentrations were summarized by timepoint, dose and part. Absolute and percent change from baseline in prolactin value was calculated, with predose value on Day 1 considered as the baseline value. Observed prolactin data, absolute and percent change from baseline versus time were plotted.

[9] = tested on: drop seizures in patients with Lennox-Gastaut Syndrome; conditions: Phase 3 studies, versus placebo; cited from earlier work
[10] = 3 mg TID, no titration, 14 days
[11] = 6 mg TID, no titration, 14 days
[12] = 12 mg TID, no titration, 14 days
[13] = 18 mg TID, no titration, 14 days
[14] = multiple doses TID, healthy subjects

In the case of `C[C@H]1CN2CCNCc3ccc(C(=O)NCC(F)F)c1c32` [Compound 1, (R)-N-(2,2-difluoroethyl)-7-methyl-1,2,3,4,6,7-hexahydro-[1,4]diazepino[6,7,1-hi]indole-8-carboxamide], the “CL/F Mean” value [1, 10] is reported as 125 L/h, the “Cav Mean” value [1, 10] is reported as 3.39 ng/mL and the “Ctrough Mean” value [1, 10] is reported as 1.94 ng/mL. The “CL/F Mean” value [1, 11] was 66.6 L/h, the “Cav Mean” value [1, 11] was 12.5 ng/mL and the “Ctrough Mean” value [1, 11] was 7.02 ng/mL. The “CL/F Mean” value [1, 12] was 63.1 L/h, the “Cav Mean” value [1, 12] was 26.6 ng/mL and the “Ctrough Mean” value [1, 12] was 15.8 ng/mL. The “CL/F Mean” value [1, 13] was 45.9 L/h, the “Cav Mean” value [1, 13] was 60.0 ng/mL and the “Ctrough Mean” value [1, 13] was 37.7 ng/mL. The “CL/F Mean” value ([1]; 24 mg TID, 3-day titration) was 62.9 L/h, the “Cav Mean” value ([1]; 24 mg TID, 3-day titration) was 60.1 ng/mL and the “Ctrough Mean” value ([1]; 24 mg TID, 3-day titration) was 34.0 ng/mL. The “dose eliminated by the renal route in 48 hours” value ([1]; 12/24 mg TID titration regimen) was 12.3%, the “accumulation upon multiple dosing” value ([1]; TID regimen, listed as Study Drug) was “Significant accumulation; also recorded: dose dependent accumulation” and the “steady-state achieved by” value ([1]; doses up to 18 mg TID, in most cases) was no more than 10 days. The “absorption into systemic circulation” value ([1]; first dose and multiple oral doses, powder-in-capsule formulation) was “rapidly absorbed”, the “dosing time after which most subjects were at steady state” value ([1]; non-titration part) was 10 days and the “dose proportionality of peak and total exposure” value ([2]; single doses 1 to 24 mg) was “slightly greater than dose proportional especially at higher doses”. For the same compound, the “absorption into the systemic circulation” value ([2]; single oral dose, powder in capsule formulation) was “rapidly absorbed”, the CL renal (clinical [3]; oral, 1 mg) was 50 mL/min and the CL renal (clinical [3]; oral, 3 mg) was 60.3 mL/min. The CL renal (clinical [3]; oral, 6 mg) was 57 mL/min, the CL renal (clinical [3]; oral, 12 mg) was 70.8 mL/min and the CL renal (clinical [3]; oral, 24 mg) was 62.5 mL/min. For the same compound, the half-life (clinical [3]; oral) was 5 to 7 h, the Cmax (clinical [3]; oral, 1 mg) was 1.08 ng/mL and the Tmax (clinical [3]; oral, 1 mg) was 1.54 h. It also gave an AUC(0-inf) (clinical [3]; oral, 3 mg) of 40.9 ng·h/mL, a Cmax (clinical [3]; oral, 3 mg) of 6.36 ng/mL and a Tmax (clinical [3]; oral, 3 mg) of 1.02 h. The Vd/F (clinical [3]; oral, 3 mg) was 608 L, the half-life (clinical [3]; oral, 3 mg) was 4.94 h and the AUC(0-inf) (clinical [3]; oral, 6 mg) was 58.7 ng·h/mL. The Cmax (clinical [3]; oral, 6 mg) was 9.52 ng/mL, the Tmax (clinical [3]; oral, 6 mg) was 1.5 h and the Vd/F (clinical [3]; oral, 6 mg) was 1230 L. It also gave a half-life (clinical [3]; oral, 6 mg) of 6.66 h, an AUC(0-inf) (clinical [3]; oral, 12 mg) of 101 ng·h/mL and a Cmax (clinical [3]; oral, 12 mg) of 17 ng/mL. For the same compound, the Tmax (clinical [3]; oral, 12 mg) was 1.25 h, the Vd/F (clinical [3]; oral, 12 mg) was 929 L and the half-life (clinical [3]; oral, 12 mg) was 4.67 h. For the same compound, the AUC(0-inf) (clinical [3]; oral, 24 mg) was 288 ng·h/mL, the Cmax (clinical [3]; oral, 24 mg) was 59.3 ng/mL and the Tmax (clinical [3]; oral, 24 mg) was 1.07 h. It also gave a Vd/F (clinical [3]; oral, 24 mg) of 697 L, a half-life (clinical [3]; oral, 24 mg) of 5.09 h and a Tmax (clinical [3]; po) of 1 to 1.5 h. For the same compound, the “prolactin levels by 24-hour postdose” value (prolactin [4]) was “returned to baseline for only the 6 mg dose level”, the “prolactin mean % CFB at 2 hours” value (prolactin [4]) was “increased in a dose-dependent manner, with a greater than dose proportional increase between 6 mg and 12 mg doses” and the prolactin (prolactin [4]; within 2 h) was “increased within 2 h in a dose- and concentration-dependent manner”. The Tmax (clinical [5]) was 1 to 2 h, the AUC (clinical [5]; 3 mg TID) was 27.1 ng·h/mL and the AUC(0-inf) (clinical [5]; 3 mg TID) was 46.1 ng·h/mL. It also gave an AUC(0-t) (clinical [5]; 3 mg TID) of 38.6 ng·h/mL, a Cmax (clinical [5]; 3 mg TID) of 6.61 ng/mL and a Tmax (clinical [5]; 3 mg TID) of 1.01 h. The half-life (clinical [5]; 3 mg TID) was 5.56 h, the AUC (clinical [5]; 6 mg TID) was 99.8 ng·h/mL and the AUC(0-inf) (clinical [5]; 6 mg TID) was 152 ng·h/mL. The AUC(0-t) (clinical [5]; 6 mg TID) was 150 ng·h/mL, the Cmax (clinical [5]; 6 mg TID) was 20.7 ng/mL and the Tmax (clinical [5]; 6 mg TID) was 1.78 h. For the same compound, the half-life (clinical [5]; 6 mg TID) was 4.81 h, the AUC (clinical [5]; 12 mg TID) was 213 ng·h/mL and the AUC(0-inf) (clinical [5]; 12 mg TID) was 330 ng·h/mL. For the same compound, the AUC(0-t) (clinical [5]; 12 mg TID) was 327 ng·h/mL, the Cmax (clinical [5]; 12 mg TID) was 44.9 ng/mL and the Tmax (clinical [5]; 12 mg TID) was 1.27 h. It also gave a half-life (clinical [5]; 12 mg TID) of 5.96 h, an AUC (clinical [5]; 18 mg TID) of 480 ng·h/mL and an AUC(0-inf) (clinical [5]; 18 mg TID) of 775 ng·h/mL. For the same compound, the AUC(0-t) (clinical [5]; 18 mg TID) was 773 ng·h/mL, the Cmax (clinical [5]; 18 mg TID) was 98.6 ng/mL and the Tmax (clinical [5]; 18 mg TID) was 2 h. The half-life (clinical [5]; 18 mg TID) was 5.64 h, the AUC (clinical [5]; 24 mg TID) was 480 ng·h/mL and the AUC(0-inf) (clinical [5]; 24 mg TID) was 741 ng·h/mL. For the same compound, the AUC(0-t) (clinical [5]; 24 mg TID) was 737 ng·h/mL, the Cmax (clinical [5]; 24 mg TID) was 107 ng/mL and the Tmax (clinical [5]; 24 mg TID) was 1.04 h. The half-life (clinical [5]; 24 mg TID) was 6.5 h, the serious adverse event ([6]; after stopping treatment with 24 mg TID) was “One” and the “subjects discontinued due to adverse events” value ([6]; forty-three subjects enrolled) was “Three”. For the same compound, the “most common TEAEs” value [6, 14] was “headache, somnolence, dizziness, dizziness postural, micturition urgency & orthostatic hypotension”, the “severity of majority of treatment emergent adverse events (TEAEs)” value [6, 14] was “mild to moderate” and the “severe TEAEs” value ([6]; occurring in 3 subjects, all after cessation of dosing) was “Five”. For the same compound, the “most common treatment emergent adverse events” value [7] was “headache, postural dizziness, and nausea, which were mild to moderate in severity”, the “mean percent change from baseline prolactin level at 2 hours” value (prolactin [8]) was “increased with increasing doses from 3 mg to 12 mg and plateaued thereafter” and the prolactin (prolactin [8]) was “increased in a dose- and concentration-dependent manner, with greater increase seen after first dose”.
For `CCNC(C)Cc1cccc(C(F)(F)F)c1` (stereo not shown) [fenfluramine], the “reduction of the frequency of drop seizures” value [9] is given as “superior to placebo”.
